Laboratory results published in publication PMC6290777, “Inhalation of the prodrug PI3K inhibitor CL27c improves lung function in asthma and fibrosis” (Nature Communications, 2018).

Experiments:
[1] = Microsomial stability, rat; format: in vitro ADME; conditions: rat liver microsomes, NADPH
Procedure: To define whether this prodrug was suitable for inhaled administration, CL27c was studied to evaluate selected ADME (absorption, distribution, metabolism, and excretion) and pharmacokinetic properties. First, stability of CL27c and CL27e was analyzed in mouse plasma (Supplementary Table 1) and in mouse, rat, and human liver microsomes in the presence of nicotinamide adenine dinucleotide phosphate (NADPH; Supplementary Table 2). Next, clearance of CL27c was analyzed in C57BL/6J mice after either intra-venous or oral administration. […] Clearance of CL27c and CL27e after oral administration could not be determined due to their low bioavailability (Supplementary Table 3). Next, pharmacokinetics after inhalation was studied in C57BL/6J mice after delivering an aerosolized micro-suspension of CL27c. As shown in Table 1 and Supplementary Fig. 1b, CL27c dose-dependently reached the lungs and its metabolite CL27e was detectable after inhalation of the highest dose. […] Therefore, the inhaled prodrug promotes local effects but prevents systemic absorption of pharmacologically relevant amounts of the active compound. […]
All tests for the microsomial stability of CL27c were conducted by the Istituto di Ricerche Biomediche (RBM) SpA – Merck Serono, Ivrea, Italy. […]
Then, cells […]
pretreated with different doses of CL27c were incubated at 37°C and 5% CO 2 for 10 minutes. […]

[2] = tested on: in vitro differentiated Treg; experiment: Treg viability assessment; format: cell-based, C57BL/6 mice; conditions: 72 h; tested 1, 3, 10 or 30 uM
Procedure: Cells were obtained from Lymph nodes and spleen from naive C57BL/6. Cells were then purified with CD4 T cell isolation Kit and with CD25 biotin and microbeads anti-biotin. Purified cells were cultured for 72 h in a 96-wells plate with anti-CD3/CD28 coated (1 ug/ml), TGF-B (1 ng/ml), or Cl27C (1, 3, 10 or 30 uM). After 72 h, the cells were harvested and stained with PBS (2% Bovine serum fetal) and anti-CD4 and fixable viability dye for 10 min. Cells were then fixed and permeabilized with intracellular fixation and permeabilization buffer set (eBioscience). Anti-FoxP3 was used for […]. After the staining, the cells were acquired with FACS VERSE machine and analyzed by FlowJo X software. […]
obtained at 200 × magnification were analyzed using the software Image -J (NIH, USA). Results were expressed as extracellular matrix deposition area (pixels). […]
Akt phosphorylation was measured by western blot as described in the “Western blot analysis” in […]
Cells were obtained from Lymph nodes and spleen from naive C57Bl/6J and purified with CD4 T cell isolation Kit (Miltenyi Biotec #130-104-454) and with CD25 biotin (eBioscience #13-0252-81) and microbeads anti-biotin (Miltenyi Biotec #130-090-485). […] Positive stained cells were analyzed with FlowJo X software after removal of doublets events and debris through FSC-A/FSC-H gating.

Question: What does the source list for `COC(=O)c1cccc(Cn2cc(-c3cccc4c(=O)cc(N5CCOCC5)[nH]c34)nn2)c1` [CL27c]?
Answer: Clint (intrinsic clearance) [1]: 0.2 ± 0.005 ml/min/mg prot; t1/2 [1]: 5.9 ± 0.1 min; concentration with toxic effects on Treg viability [2]: 30 µM
